Assay results from ChEMBL document CHEMBL3745645, “Synthesis, in vitro antitumor activity, dihydrofolate reductase inhibition, DNA intercalation and structure-activity relationship studies of 1,3,5-triazine analogues” (Bioorg Med Chem Lett, 2016).
pIC50: −log10 of the molar value. Activity calls are given as the source filed them. The calls are words filed in the database; no cut-off is given here.

What was measured:
SK-MEL-2 = experiment: Cytotoxicity against human SK-MEL-2 cells at 10 uM after 48 hrs by SRB assay; assay type: functional
UACC-257 = experiment: Cytotoxicity against human UACC257 cells at 10 uM after 48 hrs by SRB assay; assay type: functional
HCT-15 = experiment: Cytotoxicity against human HCT15 cells at 10 uM after 48 hrs by SRB assay; assay type: functional
786-0 [1] = experiment: Cytotoxicity against human 786-0 cells after 48 hrs by SRB assay; assay type: functional; details: 786-0, 48 h, pooled result: one value given for 8 cell lines, strains, targets or settings
[2] = Cytotoxicity against human DU145 cells after 48 hrs by SRB assay; assay type: functional; details: DU-145, 48 h, read-out: LC50 (the source's name)
HT-29 = experiment: Cytotoxicity against human HT-29 cells at 10 uM after 48 hrs by SRB assay; assay type: functional
[3] = Cytotoxicity against human OVCAR4 cells at 10 uM after 48 hrs by SRB assay; assay type: functional; details: OVCAR-4, 48 h, read-out: GI
UO-31 = experiment: Cytotoxicity against human UO31 cells at 10 uM after 48 hrs by SRB assay; assay type: functional
MOLT-4 = experiment: Cytotoxicity against human MOLT4 cells at 10 uM after 48 hrs by SRB assay; assay type: functional
[4] = Cytotoxicity against human Hs 578T cells at 10 uM after 48 hrs by SRB assay; assay type: functional; details: read-out: GI
UACC-62 = experiment: Cytotoxicity against human UACC62 cells at 10 uM after 48 hrs by SRB assay; assay type: functional
Dihydrofolate reductase = target: T1, Dihydrofolate reductase (Homo sapiens, UniProt P00374); experiment: Inhibition of human recombinant DHFR expressed in Escherichia coli by spectrophotometric analysis
T1 sequence (P00374 whole entry): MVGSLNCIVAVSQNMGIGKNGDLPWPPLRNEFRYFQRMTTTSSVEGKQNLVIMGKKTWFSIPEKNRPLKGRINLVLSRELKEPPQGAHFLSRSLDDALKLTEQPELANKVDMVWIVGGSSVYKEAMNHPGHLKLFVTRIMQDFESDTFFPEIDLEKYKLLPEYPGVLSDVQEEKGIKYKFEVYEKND

NCI-H322M = experiment: Cytotoxicity against human NCI-H322M cells at 10 uM after 48 hrs by SRB assay; assay type: functional; details: read-out: GI
HL-60(TB) = experiment: Cytotoxicity against human HL-60(TB) cells at 10 uM after 48 hrs by SRB assay; assay type: functional
NCI-H460 = experiment: Cytotoxicity against human NCI-H460 cells at 10 uM after 48 hrs by SRB assay; assay type: functional
K562 [5] = experiment: Cytotoxicity against human K562 cells after 48 hrs by SRB assay; assay type: functional; details: K562, 48 h
RPMI-8226 = experiment: Cytotoxicity against human RPMI8226 cells at 10 uM after 48 hrs by SRB assay; assay type: functional
MDA-MB-468 = experiment: Cytotoxicity against human MDA-MB-468 cells at 10 uM after 48 hrs by SRB assay; assay type: functional
Calf thymus DNA = experiment: Binding affinity to calf thymus DNA assessed as melting temperature by spectrophotometric analysis (reference value: 60 degC); assay type: nucleic-acid assay; details: Bos taurus
786-0 [6] = experiment: Cytotoxicity against human 786-0 cells at 10 uM after 48 hrs by SRB assay; assay type: functional
MDA-MB-435 = experiment: Cytotoxicity against human MDA-MB-435 cells at 10 uM after 48 hrs by SRB assay; assay type: functional
BT-549 = experiment: Cytotoxicity against human BT549 cells at 10 uM after 48 hrs by SRB assay; assay type: functional
COLO 205 = experiment: Cytotoxicity against human COLO205 cells at 10 uM after 48 hrs by SRB assay; assay type: functional
SF-295 = experiment: Cytotoxicity against human SF295 cells at 10 uM after 48 hrs by SRB assay; assay type: functional
[7] = Cytotoxicity against human COLO205 cells after 48 hrs by SRB assay; assay type: functional; details: COLO 205, 48 h, pooled result: one value given for 7 cell lines, strains, targets or settings
HCC 2998 = experiment: Cytotoxicity against human HCC2998 cells at 10 uM after 48 hrs by SRB assay; assay type: functional
TK-10 = experiment: Cytotoxicity against human TK10 cells at 10 uM after 48 hrs by SRB assay; assay type: functional
LOX IMVI = experiment: Cytotoxicity against human LOXIMVI cells at 10 uM after 48 hrs by SRB assay; assay type: functional
K562 [8] = experiment: Cytotoxicity against human K562 cells at 10 uM after 48 hrs by SRB assay; assay type: functional; details: K562, 48 h, read-out: GI
CCRF-CEM = experiment: Cytotoxicity against human CCRF-CEM cells at 10 uM after 48 hrs by SRB assay; assay type: functional

Compound: Cc1nc2cc(Nc3nc(Nc4ccc(F)cc4)nc(N4CCCC4)n3)ccc2n1Cc1ccccc1
- growth inhibition (GI) (SK-MEL-2): Active
- growth inhibition (GI) (UACC-257): Active
- growth inhibition (GI) (HCT-15): Active
- GI50 (786-0 [1]): 1.75 µM
- LC50 (concentration killing 50% of cells) (786-0 [1]): 1.26 µM
- TGI (786-0 [1]): 3.56 µM
- CC50 [2]: 6 µM
- growth inhibition (GI) (HT-29): Active
- inhibition of growth at 10 µM [3]: 95.2%
- growth inhibition (GI) (UO-31): Active
- growth inhibition (GI) (MOLT-4): Active
- inhibition of growth at 10 µM [4]: 69.4%
- growth inhibition (GI) (UACC-62): Active
- pIC50 (Dihydrofolate reductase): 6.96
- inhibition of growth at 10 µM (NCI-H322M): 78.6%
- growth inhibition (GI) (HL-60(TB)): Active
- growth inhibition (GI) (NCI-H460): Active
- LC50 (K562 [5]): > 100 µM
- growth inhibition (GI) (RPMI-8226): Active
- growth inhibition (GI) (MDA-MB-468): Active
- Tm (Calf thymus DNA): 71.5 °C
- growth inhibition (GI) (786-0 [6]): Active
- growth inhibition (GI) (MDA-MB-435): Active
- growth inhibition (GI) (BT-549): Active
- growth inhibition (GI) (COLO 205): Active
- growth inhibition (GI) (SF-295): Active
- GI50 [7]: 1.81 µM
- LC50 [7]: 6.93 µM
- TGI [7]: 3.54 µM
- growth inhibition (GI) (HCC 2998): Active
- growth inhibition (GI) (TK-10): Active
- growth inhibition (GI) (LOX IMVI): Active
- inhibition of growth at 10 µM (K562 [8]): 100%
- growth inhibition (GI) (CCRF-CEM): Active
